Columns and labels:
[1] = tested on: rabbit serum obtained by immunizing a rabbit with the SARS-CoV strain Frankfurt 1; assay type: binding; parameters: Binding of a rabbit serum to linear peptides / Binding of a rabbit serum to looped peptides / Rabbit serum linear peptides / Rabbit serum looped peptides / Binding of a rabbit serum to linear peptides of protein N of SARS-CoV Urbani (Rabbit serum linear peptides) / Binding of a rabbit serum to looped/cyclic peptides of protein N of SARS-CoV Urbani (Rabbit serum looped peptides): unit not given here
[2] = tested on: antibodies in sera from SARS patients (sera 1a, 1b, 2, 6, 37, 62, London, SARS-yellow, SARS-green); assay type: binding, human; parameters: Binding of serum 6 to linear peptides of protein X1 of SARS-CoV Urbani / Binding of serum 37 to linear peptides of protein X1 of SARS-CoV Urbani / Binding of serum 6 to looped/cyclic peptide (PEPSCAN-ELISA) / Binding of serum 37 to looped/cyclic peptide (PEPSCAN-ELISA) / Binding of serum 37 to looped/cyclic peptides of protein X1 of SARS-CoV Urbani / Binding of serum 6 to linear peptides of protein X2 / Binding of serum 37 to linear peptides of protein X2 / Binding of serum 37 to looped/cyclic peptides of protein X2 of SARS-CoV Urbani / Binding of serum 6 to linear peptides of protein M of SARS-CoV Urbani / Binding of serum 37 to linear peptides of protein M of SARS-CoV Urbani / Binding of serum 6 to looped/cyclic peptides of protein M of SARS-CoV Urbani / Binding of serum 37 to looped/cyclic peptides of protein M of SARS-CoV Urbani / Binding of serum 6 to linear peptides of protein X3 of SARS-CoV Urbani / Binding of serum 37 to linear peptides of protein X3 of SARS-CoV Urbani / Binding of serum 37 to looped/cyclic peptides of protein X3 of SARS-CoV Urbani / Binding of serum 6 to linear peptides of protein X4 of SARS-CoV Urbani / Binding of serum 37 to linear peptides of protein X4 of SARS-CoV Urbani / Binding of serum 37 to looped/cyclic peptides of protein X4 of SARS-CoV Urbani / Binding of serum 6 to linear peptides of protein X5 of SARS-CoV Urbani / Binding of serum 37 to linear peptides of protein X5 of SARS-CoV Urbani / Binding of serum 37 to looped/cyclic peptides of protein X5 of SARS-CoV Urbani / Binding of serum 6 to linear peptides of protein N of SARS-CoV Urbani / Binding of serum 37 to linear peptides of protein N of SARS-CoV Urbani / Binding of serum 6 to linear peptide (PEPSCAN-ELISA) / Binding of serum 1a to looped/cyclic peptides of protein N of SARS-CoV Urbani / Binding of serum 1b to looped/cyclic peptides of protein N of SARS-CoV Urbani / Binding of serum 2 to looped/cyclic peptides of protein N of SARS-CoV Urbani / Binding of serum 6 to looped/cyclic peptides of protein N of SARS-CoV Urbani / Binding of serum 37 to looped/cyclic peptides of protein N of SARS-CoV Urbani / Binding of serum 62 to looped/cyclic peptides of protein N of SARS-CoV Urbani / Binding of serum London to looped/cyclic peptides of protein N of SARS-CoV Urbani / Binding of serum SARS-green to looped/cyclic peptides of protein N of SARS-CoV Urbani: unit not given here
[3] = tested on: control sera (pooled serum of ten healthy LUMC hospital workers; commercial negative donor pooled serum from the Dutch bloodbank); assay type: binding, human; parameters: Binding of Control serum LUMC to linear peptides / Binding of Control serum Blood-bank to linear peptides / Binding of Control serum LUMC to looped peptides / Binding of Control Serum Blood-Bank to Looped peptides / Binding of Control serum LUMC to linear peptides of the protein M of SARS-CoV Urbani / Binding of Control serum Blood-bank to linear peptides of the protein M of SARS-CoV Urbani / Binding of Control serum LUMC to looped peptides of the protein M of SARS-CoV Urbani / Binding of Control Serum Blood-Bank to Looped peptides of the protein M of SARS-CoV Urbani: unit not given here

LKQLLEQWNLVIGFL
Rabbit serum linear peptides [1]: 0.2 | Rabbit serum looped peptides [1]: 0.1 | Binding of serum 1a to linear peptides of protein M of SARS-CoV Urbani [2]: 0.7 | Binding of serum 1a to looped/cyclic peptides of protein M of SARS-CoV Urbani [2]: 0.6 | Binding of serum 1b to linear peptides of protein M of SARS-CoV Urbani [2]: 0.5 | Binding of serum 1b to looped/cyclic peptides of protein M of SARS-CoV Urbani [2]: 0.6 | Binding of serum 2 to linear peptides of protein M of SARS-CoV Urbani [2]: 0.6 | Binding of serum 2 to looped/cyclic peptides of protein M of SARS-CoV Urbani [2]: 0.4 | Binding of serum 6 to linear peptides of protein M of SARS-CoV Urbani [2]: 0.7 | Binding of serum 6 to looped/cyclic peptides of protein M of SARS-CoV Urbani [2]: 0.8 | Binding of serum 37 to linear peptides of protein M of SARS-CoV Urbani [2]: 0.7 | Binding of serum 37 to looped/cyclic peptides of protein M of SARS-CoV Urbani [2]: 0.5 | Binding of serum 62 to linear peptides of protein M of SARS-CoV Urbani [2]: 0.7 | Binding of serum 62 to looped/cyclic peptides of protein M of SARS-CoV Urbani [2]: 0.7 | Binding of serum London to linear peptides of protein M of SARS-CoV Urbani [2]: 1.0 | Binding of serum London to looped/cyclic peptides of protein M of SARS-CoV Urbani [2]: 0.2 | Binding of serum SARS-green to linear peptides of protein M of SARS-CoV Urbani [2]: 0.2 | Binding of serum SARS-green to looped/cyclic peptides of protein M of SARS-CoV Urbani [2]: 0.4 | Binding of serum SARS-yellow to linear peptides of protein M of SARS-CoV Urbani [2]: 0.1 | Binding of serum SARS-yellow to looped/cyclic peptides of protein M of SARS-CoV Urbani [2]: 0.7 | Binding of Control Serum Blood-Bank to Looped peptides of the protein M of SARS-CoV Urbani [3]: 0.7 | Binding of Control serum Blood-bank to linear peptides of the protein M of SARS-CoV Urbani [3]: 0.7 | Binding of Control serum LUMC to linear peptides of the protein M of SARS-CoV Urbani [3]: 0.3 | Binding of Control serum LUMC to looped peptides of the protein M of SARS-CoV Urbani [3]: 0.7

LKTHRMCKYTQSTAL
Binding of a rabbit serum to linear peptides [1]: 0.4 | Binding of a rabbit serum to looped peptides [1]: 0.5 | Binding of serum 1a to linear peptides of protein X2 [2]: 0.8 | Binding of serum 1a to looped/cyclic peptides of protein X2 of SARS-CoV Urbani [2]: 0.6 | Binding of serum 1b to linear peptides of protein X2 [2]: 0.6 | Binding of serum 1b to looped/cyclic peptides of protein X2 of SARS-CoV Urbani [2]: 0.6 | Binding of serum 2 to linear peptides of protein X2 [2]: 0.5 | Binding of serum 2 to looped/cyclic peptides of protein X2 of SARS-CoV Urbani [2]: 0.4 | Binding of serum 6 to linear peptides of protein X2 [2]: 0.6 | Binding of serum 6 to looped/cyclic peptides of protein X2 of SARS-CoV Urbani [2]: 0.5 | Binding of serum 37 to linear peptides of protein X2 [2]: 0.7 | Binding of serum 37 to looped/cyclic peptides of protein X2 of SARS-CoV Urbani [2]: 0.5 | Binding of serum 62 to linear peptides of protein X2 [2]: 0.7 | Binding of serum 62 to looped/cyclic peptides of protein X2 of SARS-CoV Urbani [2]: 0.6 | Binding of serum London to linear peptides of protein X2 [2]: 0.5 | Binding of serum London to looped/cyclic peptides of protein X2 of SARS-CoV Urbani [2]: 0.2 | Binding of serum SARS-green to linear peptides of protein X2 [2]: 0.5 | Binding of serum SARS-green to looped/cyclic peptides of protein X2 of SARS-CoV Urbani [2]: 0.3 | Binding of serum SARS-yellow to linear peptides of protein X2 [2]: 0.8 | Binding of serum SARS-yellow to looped/cyclic peptides of protein X2 of SARS-CoV Urbani [2]: 0.6 | Binding of Control Serum Blood-Bank to Looped peptides [3]: 0.7 | Binding of Control serum Blood-bank to linear peptides [3]: 0.7 | Binding of Control serum LUMC to linear peptides [3]: 0.6 | Binding of Control serum LUMC to looped peptides [3]: 0.6

LKVTAFQHQNSKKTT
Binding of a rabbit serum to linear peptides [1]: 0.6 | Binding of a rabbit serum to looped peptides [1]: 0.3 | Binding of serum 1a to linear peptides of protein X2 [2]: 0.5 | Binding of serum 1a to looped/cyclic peptides of protein X2 of SARS-CoV Urbani [2]: 0.3 | Binding of serum 1b to linear peptides of protein X2 [2]: 0.4 | Binding of serum 1b to looped/cyclic peptides of protein X2 of SARS-CoV Urbani [2]: 0.2 | Binding of serum 2 to linear peptides of protein X2 [2]: 0.3 | Binding of serum 2 to looped/cyclic peptides of protein X2 of SARS-CoV Urbani [2]: 0.1 | Binding of serum 6 to linear peptides of protein X2 [2]: 0.3 | Binding of serum 6 to looped/cyclic peptides of protein X2 of SARS-CoV Urbani [2]: 0.1 | Binding of serum 37 to linear peptides of protein X2 [2]: 0.5 | Binding of serum 37 to looped/cyclic peptides of protein X2 of SARS-CoV Urbani [2]: 0.2 | Binding of serum 62 to linear peptides of protein X2 [2]: 0.3 | Binding of serum 62 to looped/cyclic peptides of protein X2 of SARS-CoV Urbani [2]: 0.4 | Binding of serum London to linear peptides of protein X2 [2]: 0.2 | Binding of serum London to looped/cyclic peptides of protein X2 of SARS-CoV Urbani [2]: 0.1 | Binding of serum SARS-green to linear peptides of protein X2 [2]: 0.2 | Binding of serum SARS-green to looped/cyclic peptides of protein X2 of SARS-CoV Urbani [2]: 0.1 | Binding of serum SARS-yellow to linear peptides of protein X2 [2]: 0.7 | Binding of serum SARS-yellow to looped/cyclic peptides of protein X2 of SARS-CoV Urbani [2]: 0.2 | Binding of Control Serum Blood-Bank to Looped peptides [3]: 0.3 | Binding of Control serum Blood-bank to linear peptides [3]: 0.4 | Binding of Control serum LUMC to linear peptides [3]: 0.8 | Binding of Control serum LUMC to looped peptides [3]: 0.4

LLEQWNLVIGFLFLA
Rabbit serum linear peptides [1]: 0.6 | Rabbit serum looped peptides [1]: 0.0 | Binding of serum 1a to linear peptides of protein M of SARS-CoV Urbani [2]: 0.7 | Binding of serum 1a to looped/cyclic peptides of protein M of SARS-CoV Urbani [2]: 0.5 | Binding of serum 1b to linear peptides of protein M of SARS-CoV Urbani [2]: 0.6 | Binding of serum 1b to looped/cyclic peptides of protein M of SARS-CoV Urbani [2]: 0.2 | Binding of serum 2 to linear peptides of protein M of SARS-CoV Urbani [2]: 0.4 | Binding of serum 2 to looped/cyclic peptides of protein M of SARS-CoV Urbani [2]: 0.4 | Binding of serum 6 to linear peptides of protein M of SARS-CoV Urbani [2]: 0.2 | Binding of serum 6 to looped/cyclic peptides of protein M of SARS-CoV Urbani [2]: 0.4 | Binding of serum 37 to linear peptides of protein M of SARS-CoV Urbani [2]: 0.4 | Binding of serum 37 to looped/cyclic peptides of protein M of SARS-CoV Urbani [2]: 0.4 | Binding of serum 62 to linear peptides of protein M of SARS-CoV Urbani [2]: 0.4 | Binding of serum 62 to looped/cyclic peptides of protein M of SARS-CoV Urbani [2]: 0.4 | Binding of serum London to linear peptides of protein M of SARS-CoV Urbani [2]: 0.3 | Binding of serum London to looped/cyclic peptides of protein M of SARS-CoV Urbani [2]: 0.2 | Binding of serum SARS-green to linear peptides of protein M of SARS-CoV Urbani [2]: 0.3 | Binding of serum SARS-green to looped/cyclic peptides of protein M of SARS-CoV Urbani [2]: 0.2 | Binding of serum SARS-yellow to linear peptides of protein M of SARS-CoV Urbani [2]: 0.2 | Binding of serum SARS-yellow to looped/cyclic peptides of protein M of SARS-CoV Urbani [2]: 0.4 | Binding of Control Serum Blood-Bank to Looped peptides of the protein M of SARS-CoV Urbani [3]: 0.2 | Binding of Control serum Blood-bank to linear peptides of the protein M of SARS-CoV Urbani [3]: 0.5 | Binding of Control serum LUMC to linear peptides of the protein M of SARS-CoV Urbani [3]: 0.4 | Binding of Control serum LUMC to looped peptides of the protein M of SARS-CoV Urbani [3]: 0.5

Source: US20070128217A1 (priority 2003, published 2007)
